The values below come from ChEMBL document CHEMBL1135809 (J Med Chem, 2002).

The target of assay [1] is 5-hydroxytryptamine receptor 2A (Homo sapiens, UniProt P28223). The assay can be described thus: Inhibition of ketanserin binding to 5-hydroxytryptamine 2A receptor.
The target of assay [2] is Glutamate receptor ionotropic, NMDA 2C (Rattus norvegicus, UniProt Q00961). Kind of assay: Inhibition of MK 801 binding to NMDA, PCP receptor.
The next assay has as its target T1, Substance-K receptor (Homo sapiens, UniProt P21452).
T1 sequence (P21452 whole entry): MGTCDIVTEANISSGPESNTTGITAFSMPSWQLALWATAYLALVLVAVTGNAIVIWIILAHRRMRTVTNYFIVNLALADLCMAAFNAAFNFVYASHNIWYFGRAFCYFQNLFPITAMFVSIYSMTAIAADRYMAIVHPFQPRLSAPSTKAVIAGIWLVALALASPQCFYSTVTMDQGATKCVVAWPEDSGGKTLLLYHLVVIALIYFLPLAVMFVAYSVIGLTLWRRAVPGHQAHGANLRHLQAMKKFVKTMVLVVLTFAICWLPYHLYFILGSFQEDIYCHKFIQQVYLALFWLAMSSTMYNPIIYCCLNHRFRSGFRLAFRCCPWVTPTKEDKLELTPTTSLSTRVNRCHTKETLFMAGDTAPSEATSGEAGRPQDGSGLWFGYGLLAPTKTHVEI
Kind of assay: Inhibition of [125I]NKA binding to human Tachykinin receptor 2 (NK2).

In a further assay the target is Substance-P receptor (Homo sapiens, UniProt P25103). Kind of assay: Inhibition of [Sar9,Met(O2)11]-SP binding to human Tachykinin receptor 1 (NK1).
Assay [3] in a line: The compound was tested for inhibition of serotonin reuptake. The format is functional.
Assay [4] is described as follows: The compound was tested for inhibition of noradrenaline reuptake. The class given is functional.
The nature of assay [5]: Inhibition of prazosin binding to noradrenaline alpha-1 receptor.
Assay [6] deals with T2, Alpha-2A adrenergic receptor (Homo sapiens, UniProt P08913).
T2 sequence (P08913 whole entry): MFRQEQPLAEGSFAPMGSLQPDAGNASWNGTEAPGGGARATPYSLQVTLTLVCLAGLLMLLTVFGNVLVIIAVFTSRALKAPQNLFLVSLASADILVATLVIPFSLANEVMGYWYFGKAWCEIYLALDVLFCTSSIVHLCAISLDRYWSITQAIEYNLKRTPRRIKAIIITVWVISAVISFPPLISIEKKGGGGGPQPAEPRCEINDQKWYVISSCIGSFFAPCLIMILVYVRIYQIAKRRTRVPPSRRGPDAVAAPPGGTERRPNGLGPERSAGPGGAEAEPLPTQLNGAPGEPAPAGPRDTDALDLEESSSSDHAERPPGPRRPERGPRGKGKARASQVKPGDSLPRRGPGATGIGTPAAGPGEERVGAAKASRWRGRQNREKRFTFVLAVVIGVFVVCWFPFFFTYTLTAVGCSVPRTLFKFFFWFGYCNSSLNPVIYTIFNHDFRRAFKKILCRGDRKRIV
Kind of assay: Inhibition of idazoxane binding to noradrenaline alpha-2 receptor.

In assay [7] the target is T3, 5-hydroxytryptamine receptor 1A (Mus musculus, UniProt Q64264).
T3 sequence (Q64264 whole entry): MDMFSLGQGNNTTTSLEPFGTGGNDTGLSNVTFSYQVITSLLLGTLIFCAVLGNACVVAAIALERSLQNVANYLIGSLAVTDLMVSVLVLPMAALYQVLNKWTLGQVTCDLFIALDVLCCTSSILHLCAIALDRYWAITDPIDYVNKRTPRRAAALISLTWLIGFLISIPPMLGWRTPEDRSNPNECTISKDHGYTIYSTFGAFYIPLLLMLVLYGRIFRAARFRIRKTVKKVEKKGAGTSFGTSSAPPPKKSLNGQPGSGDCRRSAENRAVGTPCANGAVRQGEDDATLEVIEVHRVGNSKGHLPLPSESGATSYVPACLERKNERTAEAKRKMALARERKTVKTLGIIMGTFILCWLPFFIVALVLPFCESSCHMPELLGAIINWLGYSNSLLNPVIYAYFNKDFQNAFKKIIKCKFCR
The assay can be described thus: Inhibition of […] binding to 5-hydroxytryptamine 1A receptor.

The next assay has as its target D(1A) dopamine receptor (Mus musculus, UniProt Q61616). Kind of assay: Inhibition of SCH 23390 binding to Dopamine receptor D1.
The target of a further assay is Histamine H1 receptor (Homo sapiens, UniProt P35367). Kind of assay: Inhibition of mepyramine binding to Histamine H1 receptor.
For a further assay, the target named is T4, Neuromedin-K receptor (Homo sapiens, UniProt P29371).
T4 sequence (P29371 whole entry): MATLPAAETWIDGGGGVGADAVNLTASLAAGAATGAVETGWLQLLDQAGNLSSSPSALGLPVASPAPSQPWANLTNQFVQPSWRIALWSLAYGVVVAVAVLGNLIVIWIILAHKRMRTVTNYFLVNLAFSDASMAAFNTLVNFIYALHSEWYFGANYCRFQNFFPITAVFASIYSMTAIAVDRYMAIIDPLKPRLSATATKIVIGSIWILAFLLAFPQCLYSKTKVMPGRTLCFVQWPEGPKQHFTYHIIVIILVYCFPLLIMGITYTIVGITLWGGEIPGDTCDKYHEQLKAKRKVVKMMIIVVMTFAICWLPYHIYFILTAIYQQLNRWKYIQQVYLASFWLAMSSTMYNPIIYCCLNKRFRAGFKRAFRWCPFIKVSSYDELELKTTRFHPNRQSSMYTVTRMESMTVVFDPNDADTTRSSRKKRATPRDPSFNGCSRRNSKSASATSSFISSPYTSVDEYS
The assay can be described thus: Inhibition of [125I][MePhe7]-NKB binding to human Tachykinin receptor 3 (NK3).

Assay [8] deals with T5, 5-hydroxytryptamine receptor 3A (Homo sapiens, UniProt P46098).
T5 sequence (P46098 whole entry): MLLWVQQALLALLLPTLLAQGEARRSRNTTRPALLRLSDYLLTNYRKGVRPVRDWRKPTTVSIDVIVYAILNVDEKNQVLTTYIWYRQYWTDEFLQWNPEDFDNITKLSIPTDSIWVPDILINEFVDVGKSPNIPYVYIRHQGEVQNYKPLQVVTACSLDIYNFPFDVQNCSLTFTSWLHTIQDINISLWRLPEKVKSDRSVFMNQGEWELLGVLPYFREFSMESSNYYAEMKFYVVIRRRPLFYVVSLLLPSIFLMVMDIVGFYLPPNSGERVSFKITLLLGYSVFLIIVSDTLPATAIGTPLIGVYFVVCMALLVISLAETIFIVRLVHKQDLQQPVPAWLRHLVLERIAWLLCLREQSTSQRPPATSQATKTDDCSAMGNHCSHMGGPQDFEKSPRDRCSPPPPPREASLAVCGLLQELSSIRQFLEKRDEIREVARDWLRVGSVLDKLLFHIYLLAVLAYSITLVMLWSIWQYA
Kind of assay: Inhibition of GR-65630 binding to 5-hydroxytryptamine 3 receptor.

For assay [9], the target named is Sigma non-opioid intracellular receptor 1 (Homo sapiens) (UniProt Q99720). The assay can be described thus: Selectivity ratio (Sigma1/Sigma2).

The structures appear in SMILES notation.

D(1A) dopamine receptor, sequence (Q61616 whole entry): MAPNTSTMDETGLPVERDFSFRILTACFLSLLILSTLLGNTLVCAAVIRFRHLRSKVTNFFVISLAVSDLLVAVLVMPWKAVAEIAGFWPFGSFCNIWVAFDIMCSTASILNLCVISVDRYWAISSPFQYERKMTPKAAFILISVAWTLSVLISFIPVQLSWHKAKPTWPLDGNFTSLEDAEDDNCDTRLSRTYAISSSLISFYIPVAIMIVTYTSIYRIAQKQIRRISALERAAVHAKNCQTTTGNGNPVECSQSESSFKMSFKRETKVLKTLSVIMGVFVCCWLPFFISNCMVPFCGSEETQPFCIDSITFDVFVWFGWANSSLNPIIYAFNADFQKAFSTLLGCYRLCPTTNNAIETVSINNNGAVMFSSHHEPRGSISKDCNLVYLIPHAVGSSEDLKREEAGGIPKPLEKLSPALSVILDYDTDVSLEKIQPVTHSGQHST
Sigma non-opioid intracellular receptor 1 (Homo sapiens), sequence (Q99720 whole entry): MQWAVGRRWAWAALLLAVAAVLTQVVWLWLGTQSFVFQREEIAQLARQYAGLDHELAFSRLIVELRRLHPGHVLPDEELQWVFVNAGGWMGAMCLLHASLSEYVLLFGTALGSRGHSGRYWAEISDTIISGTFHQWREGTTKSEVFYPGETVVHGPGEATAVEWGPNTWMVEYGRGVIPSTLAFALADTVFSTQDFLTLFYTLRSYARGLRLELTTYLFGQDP
Glutamate receptor ionotropic, NMDA 2C, sequence (Q00961 whole entry): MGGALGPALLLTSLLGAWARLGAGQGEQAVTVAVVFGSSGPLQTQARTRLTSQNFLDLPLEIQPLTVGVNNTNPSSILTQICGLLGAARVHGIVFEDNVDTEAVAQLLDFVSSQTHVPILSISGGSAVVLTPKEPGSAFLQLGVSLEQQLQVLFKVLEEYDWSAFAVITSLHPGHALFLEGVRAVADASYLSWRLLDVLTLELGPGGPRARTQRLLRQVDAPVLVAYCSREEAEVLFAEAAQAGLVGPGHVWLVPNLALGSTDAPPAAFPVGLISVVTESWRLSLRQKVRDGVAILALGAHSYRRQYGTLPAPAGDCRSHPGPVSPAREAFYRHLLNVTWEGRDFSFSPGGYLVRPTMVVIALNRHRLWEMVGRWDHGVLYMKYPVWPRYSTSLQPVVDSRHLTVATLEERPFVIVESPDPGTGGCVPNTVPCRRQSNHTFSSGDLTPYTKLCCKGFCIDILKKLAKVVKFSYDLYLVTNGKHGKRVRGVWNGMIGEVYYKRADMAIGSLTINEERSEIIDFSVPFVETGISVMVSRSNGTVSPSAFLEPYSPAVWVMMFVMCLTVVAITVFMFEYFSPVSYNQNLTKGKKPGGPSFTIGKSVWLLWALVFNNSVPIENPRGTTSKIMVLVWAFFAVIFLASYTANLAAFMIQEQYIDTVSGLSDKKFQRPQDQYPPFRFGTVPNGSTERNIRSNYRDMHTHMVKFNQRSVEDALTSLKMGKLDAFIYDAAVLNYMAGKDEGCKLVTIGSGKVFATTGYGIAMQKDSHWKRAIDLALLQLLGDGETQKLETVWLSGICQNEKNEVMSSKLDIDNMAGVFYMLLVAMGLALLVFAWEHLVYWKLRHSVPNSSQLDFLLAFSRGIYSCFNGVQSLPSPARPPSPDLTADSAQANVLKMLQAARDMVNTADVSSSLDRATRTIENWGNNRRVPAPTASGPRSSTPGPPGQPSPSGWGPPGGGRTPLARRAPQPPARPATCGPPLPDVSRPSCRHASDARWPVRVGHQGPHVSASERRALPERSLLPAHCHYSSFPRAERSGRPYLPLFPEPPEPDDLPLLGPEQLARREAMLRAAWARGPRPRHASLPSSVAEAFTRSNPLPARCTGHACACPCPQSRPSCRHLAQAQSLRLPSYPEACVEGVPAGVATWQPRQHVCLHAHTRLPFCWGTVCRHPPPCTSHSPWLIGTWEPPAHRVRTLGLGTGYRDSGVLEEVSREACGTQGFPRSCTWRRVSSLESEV
Substance-P receptor, sequence (P25103 whole entry): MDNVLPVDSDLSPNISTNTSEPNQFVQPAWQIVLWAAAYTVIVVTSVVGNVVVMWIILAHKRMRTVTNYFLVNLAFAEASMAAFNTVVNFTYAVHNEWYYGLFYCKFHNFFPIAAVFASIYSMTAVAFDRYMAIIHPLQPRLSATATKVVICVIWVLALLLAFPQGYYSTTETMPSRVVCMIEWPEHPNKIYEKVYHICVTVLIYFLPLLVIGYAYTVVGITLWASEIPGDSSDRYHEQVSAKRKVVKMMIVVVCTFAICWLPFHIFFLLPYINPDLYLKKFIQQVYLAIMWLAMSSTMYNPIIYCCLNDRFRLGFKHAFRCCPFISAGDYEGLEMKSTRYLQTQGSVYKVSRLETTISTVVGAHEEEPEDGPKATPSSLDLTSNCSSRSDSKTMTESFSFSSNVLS
Histamine H1 receptor, sequence (P35367 whole entry): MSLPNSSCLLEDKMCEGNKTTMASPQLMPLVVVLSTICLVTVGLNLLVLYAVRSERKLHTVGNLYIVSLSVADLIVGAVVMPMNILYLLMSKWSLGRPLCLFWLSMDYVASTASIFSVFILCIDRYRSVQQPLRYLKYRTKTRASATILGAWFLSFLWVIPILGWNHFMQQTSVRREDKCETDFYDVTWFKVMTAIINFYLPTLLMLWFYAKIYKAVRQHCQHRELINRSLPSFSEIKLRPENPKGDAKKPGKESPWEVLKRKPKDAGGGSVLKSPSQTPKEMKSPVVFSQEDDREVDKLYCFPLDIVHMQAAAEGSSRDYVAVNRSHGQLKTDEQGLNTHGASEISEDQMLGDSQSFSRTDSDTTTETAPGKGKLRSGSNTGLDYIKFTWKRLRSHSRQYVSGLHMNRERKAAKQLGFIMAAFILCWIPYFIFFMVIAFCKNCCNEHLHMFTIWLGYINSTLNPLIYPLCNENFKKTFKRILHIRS
5-hydroxytryptamine receptor 2A, sequence (P28223 whole entry): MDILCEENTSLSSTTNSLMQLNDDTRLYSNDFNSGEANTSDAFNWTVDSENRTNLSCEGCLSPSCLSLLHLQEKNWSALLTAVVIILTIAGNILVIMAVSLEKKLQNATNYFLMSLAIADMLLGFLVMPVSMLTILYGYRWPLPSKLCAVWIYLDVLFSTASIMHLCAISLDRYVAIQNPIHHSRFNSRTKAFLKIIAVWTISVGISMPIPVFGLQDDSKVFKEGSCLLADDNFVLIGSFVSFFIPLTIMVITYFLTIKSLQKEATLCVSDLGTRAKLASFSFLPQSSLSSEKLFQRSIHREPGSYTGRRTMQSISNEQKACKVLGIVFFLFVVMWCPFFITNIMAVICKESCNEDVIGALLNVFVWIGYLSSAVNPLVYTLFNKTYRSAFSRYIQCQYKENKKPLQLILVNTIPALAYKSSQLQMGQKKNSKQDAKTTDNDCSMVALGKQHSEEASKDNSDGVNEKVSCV

`COC1Cc2ccccc2C2(CCN(CCCc3ccccc3)CC2)O1` (stereo unspecified): the IC50 was 0.46 µM in assay [1]; greater than 10 µM in assay [2]; greater than 10 µM at Substance-K receptor; greater than 10 µM on Substance-P receptor; 0.7 µM in assay [3]; 0.51 µM in assay [4]. The IC50 in [5] is 1.4 µM; in assay [6] it was 3.1 µM; in assay [7] it was greater than 1 µM; at D(1A) dopamine receptor it was greater than 10 µM; on Histamine H1 receptor it was 8 µM; at Neuromedin-K receptor, greater than 10 µM. In addition, the IC50 in assay [8] is greater than 10 µM.

For the molecule `COC1Cc2ccccc2C2(CCN(CCCCc3ccccc3)CC2)O1` (stereo unspecified), the Selectivity ratio in assay [9] is 30.

`OC1Cc2ccccc2C2(CCN(CCc3ccccc3)CC2)O1` (stereo unspecified): the Selectivity ratio in [9] was 2.

As to `COC1OC2(CCN(Cc3ccccc3)CC2)c2ccccc21` (stereo unspecified), the IC50 in assay [1] was greater than 10 µM; in assay [2], greater than 10 µM; on Substance-K receptor, greater than 10 µM; at Substance-P receptor it was greater than 10 µM; in assay [3], 8 µM; in [4] it was greater than 10 µM. Besides, the IC50 was greater than 10 µM in assay [5]; 6.2 µM in assay [6]; greater than 1 µM in assay [7]; greater than 10 µM on D(1A) dopamine receptor; greater than 10 µM on Histamine H1 receptor; greater than 10 µM at Neuromedin-K receptor. This molecule displayed an IC50 in assay [8] greater than 10 µM.

Take `COC1Cc2ccccc2C2(CCN(C/C=C/c3ccccc3)CC2)O1` (stereo unspecified): the Selectivity ratio in assay [9] worked out at 301.

On to `COC1Cc2ccccc2C2(CCN(Cc3ccccc3)CC2)O1` (stereo unspecified), for which the IC50 in [1] is 6.6 µM; in assay [2], greater than 10 µM; at Substance-K receptor it was greater than 10 µM; on Substance-P receptor, greater than 10 µM; in [3], 6 µM; in assay [6], 3 µM. In addition, the IC50 in assay [7] is greater than 1 µM; at D(1A) dopamine receptor it was greater than 10 µM; on Histamine H1 receptor, greater than 10 µM; at Neuromedin-K receptor it was greater than 10 µM; in assay [8], greater than 10 µM.

In the case of `OC1Cc2ccccc2C2(CCN(Cc3ccccc3)CC2)O1` (stereo unspecified), the Selectivity ratio in assay [9] turned out to be 236.
